The text below walks through data of US20110053934A1, “COMPOUNDS AND METHODS OF TREATMENT” (GLAXOSMITHKLINE LLC, priority 2007, published 2011).

Where two headings read alike, the source gives them in different places. Some results are limits rather than exact numbers.

In assay [1] the target is T1, ret kinase (intracellular portion of ret, amino acids 713-1072 of the short isoform) (Homo sapiens, UniProt P07949).
T1 sequence (P07949 713-1072 isoform P07949-2): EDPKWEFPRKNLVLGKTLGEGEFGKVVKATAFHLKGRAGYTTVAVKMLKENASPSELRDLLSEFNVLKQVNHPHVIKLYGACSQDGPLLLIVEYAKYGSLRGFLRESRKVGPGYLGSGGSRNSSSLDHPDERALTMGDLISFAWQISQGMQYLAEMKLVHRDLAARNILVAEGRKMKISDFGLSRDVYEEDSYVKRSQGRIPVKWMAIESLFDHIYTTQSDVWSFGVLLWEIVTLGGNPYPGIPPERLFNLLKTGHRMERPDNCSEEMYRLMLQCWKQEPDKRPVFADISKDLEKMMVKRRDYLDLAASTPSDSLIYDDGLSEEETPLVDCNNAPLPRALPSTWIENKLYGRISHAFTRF
Briefly: Ret kinase enzyme assay. It counts as biochemical. Here is the method:
The ret kinase assay used the intracellular portion of ret (amino acids 713-1072 of the short isoform) produced in SF9 insect cells and purified on a nickel column. The assay was performed in a 45 μL volume with increasing concentrations of tyrosine kinase inhibitor (TKI) in triplicate in a 96-well plate format as follows: • 4.5 μL 500 mM Morpholinopropanesulfonic acid, pH 7.4 • 4.5 μL 100 μM adenosine triphosphate • 4.5 μL 250 mM MgCl2 • 1.0 μL γ-ATP^33 (1 microCi)(3000 Ci/mMol) • 2.04 (5 mg/ml) poly Glutamic acid-Tyrosine (Sigma (P-0275)) • 234H20 • 1.04 recombinant ret (100 ng) • 4.5 μL 10× Tyrosine kinase inhibitor
The components were incubated in triplicate for 30 minutes at room temperature within a 96-well plate in triplicate. The reaction was stopped by adding 45 μL 0.5% H3PO4 to each well. 75 μL of the reaction mixture was spotted onto phosphocellulose paper (Millipore, cat #MAPHN0B50) and was washed 3 times with 2004 0.5% H3PO4. Each phosphocellulase filter was transferred into a separate scintillation vial, 1 ml cytoscint fluid was added, and the sample counted on a Packard 1900TR liquid scintillation analyzer for 1 minute.
Concentrations of Example 1 tested in the ret enzyme kinase assay to determine the IC50 were 0, 0.5, 1, 5, 10, 50, 100, and 250 nM.

In the next assay the target is c-src (Homo sapiens, UniProt P12931). Briefly: c-src kinase inhibition. It counts as biochemical. The following applies: read-out: c-src, range of activity, pIC50 values (converted).
c-src, sequence (P12931 whole entry, species assumed): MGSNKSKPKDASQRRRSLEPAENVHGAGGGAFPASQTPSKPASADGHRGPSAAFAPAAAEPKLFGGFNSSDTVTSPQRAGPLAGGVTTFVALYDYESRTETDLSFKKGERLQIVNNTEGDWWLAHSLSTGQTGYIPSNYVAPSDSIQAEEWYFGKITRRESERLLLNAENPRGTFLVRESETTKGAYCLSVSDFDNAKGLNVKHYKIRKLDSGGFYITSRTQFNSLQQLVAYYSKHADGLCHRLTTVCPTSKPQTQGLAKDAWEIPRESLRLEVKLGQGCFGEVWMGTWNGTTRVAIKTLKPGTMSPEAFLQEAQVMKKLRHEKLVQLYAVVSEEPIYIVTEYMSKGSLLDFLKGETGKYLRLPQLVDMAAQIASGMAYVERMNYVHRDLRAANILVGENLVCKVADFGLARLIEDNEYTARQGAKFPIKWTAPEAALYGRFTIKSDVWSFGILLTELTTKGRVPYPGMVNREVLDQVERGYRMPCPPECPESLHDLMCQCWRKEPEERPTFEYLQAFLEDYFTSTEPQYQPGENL
In the next assay the target is VEFGR2 (Homo sapiens, UniProt P35968). Briefly: VEFGR2 kinase inhibition. It counts as biochemical. The following applies: read-out: VEFGR2, range of activity, pIC50 values (converted).
VEFGR2, sequence (P35968 20-1356): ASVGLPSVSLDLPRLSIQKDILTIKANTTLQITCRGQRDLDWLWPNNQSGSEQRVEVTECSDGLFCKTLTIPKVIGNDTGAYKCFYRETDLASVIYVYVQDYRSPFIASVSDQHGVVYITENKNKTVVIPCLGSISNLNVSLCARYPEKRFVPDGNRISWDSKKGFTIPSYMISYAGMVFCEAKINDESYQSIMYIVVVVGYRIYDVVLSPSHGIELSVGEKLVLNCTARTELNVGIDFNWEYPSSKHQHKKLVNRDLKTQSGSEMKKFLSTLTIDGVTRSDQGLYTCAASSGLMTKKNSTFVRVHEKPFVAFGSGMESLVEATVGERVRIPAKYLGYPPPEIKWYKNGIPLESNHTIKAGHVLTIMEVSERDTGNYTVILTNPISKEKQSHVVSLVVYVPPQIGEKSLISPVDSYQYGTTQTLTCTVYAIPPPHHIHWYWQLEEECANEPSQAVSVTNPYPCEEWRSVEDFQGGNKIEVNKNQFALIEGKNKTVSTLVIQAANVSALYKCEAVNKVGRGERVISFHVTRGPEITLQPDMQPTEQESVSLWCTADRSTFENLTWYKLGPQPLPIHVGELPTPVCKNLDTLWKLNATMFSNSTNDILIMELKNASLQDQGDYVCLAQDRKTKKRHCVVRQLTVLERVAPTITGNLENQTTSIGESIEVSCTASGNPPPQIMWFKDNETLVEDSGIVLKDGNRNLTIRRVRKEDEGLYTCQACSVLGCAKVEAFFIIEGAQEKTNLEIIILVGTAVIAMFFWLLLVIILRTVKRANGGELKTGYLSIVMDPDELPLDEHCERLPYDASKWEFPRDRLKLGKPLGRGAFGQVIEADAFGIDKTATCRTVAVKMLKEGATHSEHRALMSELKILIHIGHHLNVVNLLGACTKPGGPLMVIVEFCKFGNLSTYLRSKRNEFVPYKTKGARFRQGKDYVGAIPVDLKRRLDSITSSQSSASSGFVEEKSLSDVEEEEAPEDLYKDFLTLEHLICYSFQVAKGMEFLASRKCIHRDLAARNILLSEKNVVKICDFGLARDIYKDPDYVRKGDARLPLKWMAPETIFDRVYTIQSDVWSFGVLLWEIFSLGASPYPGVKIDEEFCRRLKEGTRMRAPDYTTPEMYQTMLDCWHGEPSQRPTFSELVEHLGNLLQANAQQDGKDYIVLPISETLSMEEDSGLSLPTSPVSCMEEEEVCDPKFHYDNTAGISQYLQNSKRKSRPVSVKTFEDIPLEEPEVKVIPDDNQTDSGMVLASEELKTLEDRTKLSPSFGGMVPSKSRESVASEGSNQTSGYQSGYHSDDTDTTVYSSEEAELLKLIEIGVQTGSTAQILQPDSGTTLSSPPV
For assay [2], the system named is TT cells, a medullary thyroid cancer cell line with constitutively activated ret. Briefly: MTT assay, TT cell proliferation. The assay is classed as cell-based. The conditions noted are these: Homo sapiens, 168 hours with compound. How it is done:
The potency of the compound of the invention was tested for its ability to inhibit cell proliferation and cell viability.
For orientation: Tetrazolium assays rely on reduction of a dye to a coloured formazan, in cell work by metabolically active cells.

The mark [3] stands for this setting: ret kinase enzyme assay, read-out: Ret, range of activity, pIC50 values (converted).

As for `Oc1cccc(Nc2ccnc3cc(-c4ccccn4)ccc23)c1` [Example 1, 3-{[7-(2-pyridinyl)-4-quinolinyl]amino}phenol], the IC50 (in assay [1] (setting [3]); at c-src) was < 10 nM throughout.
`Oc1cc(Nc2ccnc3cc(-c4cc5ccccc5o4)ccc23)ccc1Br` [Example 3, 5-{[7-(1-benzofuran-2-yl)-4-quinolinyl]amino}-2-bromophenol]: the values for the IC50 (in assay [1] (setting [3]); at c-src; at VEFGR2) were 10 to 100 nM, 10 to 100 nM and < 10 nM, respectively.
Consider `Oc1cc(Nc2ccnc3cc(-c4cccc(CNCCN5CCOCC5)c4)ccc23)c(F)cc1Cl` [Example 4, 2-chloro-4-fluoro-5-({7-[3-({[2-(4-morpholinyl)ethyl]amino}methyl)phenyl]-4-quinolinyl}amino)phenol], for which the IC50 in assay [1] is 10 to 100 nM; on c-src it was < 10 nM; at VEFGR2 it was < 10 nM.
As for `CS(=O)(=O)c1ccc2nccc(Nc3cc(O)c(F)cc3Cl)c2c1` [Example 6, 4-chloro-2-fluoro-5-{[6-(methysulfonuyl)-4-quinolinyl]amino}phenol], the figures for the IC50 in assay [1] (setting [3]) and in assay [2] were < 10 nM and < 1000 nM, respectively.
For `OCc1nc(-c2ccc3c(Nc4cc(O)c(F)cc4Cl)ccnc3c2)cs1` [Example 7, 4-chloro-2-fluoro-5-({7-[2-(hydroxymethyl)-1,3-thiazol-4-yl]-4-quinolinyl}amino)phenol], the IC50 in assay [1] (setting [3]) was 10 to 100 nM; on c-src, < 10 nM.
As for `Cc1ccc(O)cc1Nc1ccnc2ccc(C(=O)NC(C)C)cc12` [Example 10], the figures for the IC50 (in assay [1] (setting [3]); at VEFGR2) were 10 to 100 nM and 100 to 1000 nM, respectively.
